In PubChem BioAssay (NCI):
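Cultured in 96-well plates, cells were exposed to test compound for 48 hours across five concentrations. At the GI50, growth is halved. TGI: total growth inhibition.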

Tests used:
Experiment in all cases: NCI tumour cell line growth inhibition, 48 h
[1] = tested on: 786-0 renal
[2] = tested on: A498 renal
[3] = tested on: A549 NSCLC
[4] = tested on: ACHN renal
[5] = tested on: BT-549 breast
[6] = tested on: CAKI-1 renal
[7] = tested on: CCRF-CEM leukemia
[8] = tested on: COLO 205 colon
[9] = tested on: DU-145 prostate
[10] = tested on: EKVX NSCLC
[11] = tested on: HCC-2998 colon
[12] = tested on: HCT-116 colon
[13] = tested on: HCT-15 colon
[14] = tested on: HL-60(TB) leukemia
[15] = tested on: HOP-62 NSCLC
[16] = tested on: HOP-92 NSCLC
[17] = tested on: HS 578T breast
[18] = tested on: HT29 colon
[19] = tested on: IGROV1 ovarian
[20] = tested on: K-562 leukemia
[21] = tested on: KM12 colon
[22] = tested on: LOX IMVI melanoma
[23] = tested on: M14 melanoma
[24] = tested on: MALME-3M melanoma
[25] = tested on: MCF7 breast
[26] = tested on: MDA-MB-231 breast
[27] = tested on: MDA-MB-435
[28] = tested on: MOLT-4 leukemia
[29] = tested on: NCI-H226 lung
[30] = tested on: NCI-H23 lung
[31] = tested on: NCI-H460 lung
[32] = tested on: NCI-H522 lung
[33] = tested on: NCI/ADR-RES ovarian
[34] = tested on: OVCAR-3 ovarian
[35] = tested on: OVCAR-4 ovarian
[36] = tested on: OVCAR-5 ovarian
[37] = tested on: OVCAR-8 ovarian
[38] = tested on: PC-3 prostate
[39] = tested on: RPMI-8226 leukemia
[40] = tested on: RXF 393 renal
[41] = tested on: SF-268 CNS
[42] = tested on: SF-295 CNS
[43] = tested on: SF-539 CNS
[44] = tested on: SK-MEL-2 melanoma
[45] = tested on: SK-MEL-28 melanoma
[46] = tested on: SK-MEL-5 melanoma
[47] = tested on: SK-OV-3 ovarian
[48] = tested on: SN12C renal
[49] = tested on: SNB-19 CNS
[50] = tested on: SNB-75 CNS
[51] = tested on: SR leukemia
[52] = tested on: SW-620 colon
[53] = tested on: T-47D breast
[54] = tested on: TK-10 renal
[55] = tested on: U251 CNS
[56] = tested on: UACC-257 melanoma
[57] = tested on: UACC-62 melanoma
[58] = tested on: UO-31 renal

O=C1C(SCCO)=C(SCCO)C(=O)N1c1ccc(-c2ccccc2)cc1
GI50 [1]: 1.33 µM | TGI [1]: 2.84 µM | GI50 [2]: 18 µM | TGI [2]: 37.9 µM | GI50 [3]: 10.2 µM | TGI [3]: 27 µM | GI50 [4]: 1.68 µM | TGI [4]: 3.11 µM | GI50 [5]: 4.01 µM | TGI [5]: 8.38 µM | GI50 [6]: 0.644 µM | TGI [6]: 1.79 µM | GI50 [7]: 2.34 µM | TGI [7]: 6.87 µM | GI50 [8]: 1.45 µM | TGI [8]: 3.09 µM | GI50 [9]: 3.59 µM | TGI [9]: 8.94 µM | GI50 [10]: 9.5 µM | TGI [10]: 23.3 µM | GI50 [11]: 3.65 µM | TGI [11]: 9.87 µM | GI50 [12]: 0.536 µM | TGI [12]: 1.24 µM | GI50 [13]: 2.13 µM | TGI [13]: 5.31 µM | GI50 [14]: 18.7 µM | TGI [14]: 51.6 µM | GI50 [15]: 4.88 µM | TGI [15]: 10.6 µM | GI50 [16]: 1.87 µM | TGI [16]: 7.24 µM | GI50 [17]: 17.2 µM | TGI [17]: > 77.9 µM | GI50 [18]: 1.02 µM | TGI [18]: 3.5 µM | GI50 [19]: 2.02 µM | TGI [19]: 4.67 µM | GI50 [20]: > 50 µM | TGI [20]: > 100 µM | GI50 [21]: 7.55 µM | TGI [21]: 20.8 µM | GI50 [22]: 2.7 µM | TGI [22]: 8.44 µM | GI50 [23]: 2.31 µM | TGI [23]: 7.64 µM | GI50 [24]: 1.61 µM | TGI [24]: 5.31 µM | GI50 [25]: 2.17 µM | TGI [25]: 7.74 µM | GI50 [26]: 13.3 µM | TGI [26]: 32.7 µM | GI50 [27]: 4.98 µM | TGI [27]: 12.8 µM | GI50 [28]: 18.9 µM | TGI [28]: 73.1 µM | GI50 [29]: 23.1 µM | TGI [29]: > 53.4 µM | GI50 [30]: 4.38 µM | TGI [30]: 13.3 µM | GI50 [31]: 9.75 µM | TGI [31]: 34.9 µM | GI50 [32]: 7.51 µM | TGI [32]: 22.6 µM | GI50 [33]: 3.54 µM | TGI [33]: 16.2 µM | GI50 [34]: 0.897 µM | TGI [34]: 2.32 µM | GI50 [35]: 0.932 µM | TGI [35]: 3.1 µM | GI50 [36]: 3.61 µM | TGI [36]: 11 µM | GI50 [37]: 2 µM | TGI [37]: 5.82 µM | GI50 [38]: 1.07 µM | TGI [38]: 7.57 µM | GI50 [39]: 0.845 µM | TGI [39]: 4.6 µM | GI50 [40]: 1.19 µM | TGI [40]: 2.73 µM | GI50 [41]: 3.1 µM | TGI [41]: 7.65 µM | GI50 [42]: 20.7 µM | TGI [42]: 46.1 µM | GI50 [43]: 1.78 µM | TGI [43]: 3.92 µM | GI50 [44]: 0.259 µM | TGI [44]: 1.69 µM | GI50 [45]: 2.41 µM | TGI [45]: 6.65 µM | GI50 [46]: 9.46 µM | TGI [46]: 24.6 µM | GI50 [47]: 32.7 µM | TGI [47]: > 100 µM | GI50 [48]: 5.47 µM | TGI [48]: 19.6 µM | GI50 [49]: 19.8 µM | TGI [49]: 43.1 µM | GI50 [50]: 4.1 µM | TGI [50]: 11.1 µM | GI50 [51]: 0.182 µM | TGI [51]: > 100 µM | GI50 [52]: 1.45 µM | TGI [52]: 3.94 µM | GI50 [53]: 1.71 µM | TGI [53]: 7.43 µM | GI50 [54]: 1.49 µM | TGI [54]: 3.18 µM | GI50 [55]: 5.21 µM | TGI [55]: 15.7 µM | GI50 [56]: 3.32 µM | TGI [56]: 7.62 µM | GI50 [57]: 6.34 µM | TGI [57]: 19 µM | GI50 [58]: 1.54 µM | TGI [58]: 2.97 µM
